target: T1, human IKK-2 (rhIKK-2 homodimer) (Homo sapiens, UniProt O14920); assay: IKK-2 Resin Enzyme Assay (Human IKK-2 Enzyme Assay); format: biochemical; settings: human IKK-2, resin enzyme assay; read-out: IC50 (μM) hIKK-2
T1 construct: FLAG (DYKDDDDKD) (C); made in house; host or cells: insect cells (baculovirus, pFastBac)
T1 sequence (O14920 1-756): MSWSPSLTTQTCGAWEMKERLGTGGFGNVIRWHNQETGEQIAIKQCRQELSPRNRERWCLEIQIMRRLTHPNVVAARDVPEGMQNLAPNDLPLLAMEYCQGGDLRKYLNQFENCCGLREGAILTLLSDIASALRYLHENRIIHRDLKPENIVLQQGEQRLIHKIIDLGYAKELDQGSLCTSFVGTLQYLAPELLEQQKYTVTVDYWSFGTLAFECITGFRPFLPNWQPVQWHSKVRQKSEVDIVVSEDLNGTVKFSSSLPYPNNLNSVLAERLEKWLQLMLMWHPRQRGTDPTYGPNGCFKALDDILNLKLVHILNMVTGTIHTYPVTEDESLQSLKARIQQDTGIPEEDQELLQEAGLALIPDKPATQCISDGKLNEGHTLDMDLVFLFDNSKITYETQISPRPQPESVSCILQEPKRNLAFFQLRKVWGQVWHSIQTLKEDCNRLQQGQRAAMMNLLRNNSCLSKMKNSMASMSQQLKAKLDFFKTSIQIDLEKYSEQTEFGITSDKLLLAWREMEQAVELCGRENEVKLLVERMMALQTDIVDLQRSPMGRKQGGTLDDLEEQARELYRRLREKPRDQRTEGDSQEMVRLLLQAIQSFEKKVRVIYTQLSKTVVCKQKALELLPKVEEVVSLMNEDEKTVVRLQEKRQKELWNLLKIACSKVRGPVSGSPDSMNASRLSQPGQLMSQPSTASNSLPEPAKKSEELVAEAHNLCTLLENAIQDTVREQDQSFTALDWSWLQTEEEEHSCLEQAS
How it was run: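 C-terminally FLAG-tagged human IKK-2 homodimer, baculovirus-expressed in insect cells and anti-FLAG purified. Reaction mix: 5 μM biotinylated IκBα peptide (Ser32/Ser36 region), 1 μM ATP with [γ-33P]ATP, 2 mM MgCl2, 2 mM MnCl2, 10 mM NaF, 1 mM DTT, 25 mM HEPES pH 7.6. Incubated 30 min at 25 °C; IC50 derived.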

IC50 [µM]	SMILES
0.986	NC(=O)Nc1cn(-c2ccc([S+]([O-])c3ccccn3)cc2)nc1C(N)=O (stereo not drawn) [Example 284, 1-(3-carbamoyl-1-(4-(pyridin-2-ylsulfinyl)phenyl)-1H-pyrazol-4-yl)urea]
7.59	CCc1cc(Br)ccc1N/N=C(\C#N)C(N)=O [Example 277, (2E)-2-[(4-bromo-2-ethylphenyl)hydrazono]-2-cyanoacetamide]
0.63	COc1ccc(CNC(=O)c2ccc(-c3ccc(-n4cc(NC(N)=O)c(C(N)=O)n4)cc3)cc2F)cc1 [Example 150, 4-[(aminocarbonyl)amino]-1-(3′-fluoro-4′-{[(4-methoxybenzyl)amino]carbonyl}-1,1′-biphenyl-4-yl)-1H-pyrazole-3-carboxamide]
0.315	NC(=O)Nc1cn(-c2ccc(S(=O)(=O)c3ccc(F)cc3)cc2F)nc1C(N)=O [Example 378, 1-(1-(4-(4-fluorophenylsulfonyl)-2-fluorophenyl)-3-carbamoyl-1H-pyrazol-4-yl)urea]
> 20	NC(=O)Nc1nn(-c2ccc(-c3ccc(Cl)c(Cl)c3)cc2)cc1C(N)=O [Example 136]
0.61	NC(=O)Nc1cn(-c2cccc(Br)c2)nc1C(N)=O [Example 20, 4-[(aminocarbonyl)amino]-1-(3-bromophenyl)-1H-pyrazole-3-carboxamide]
0.13	NC(=O)Nc1cn(-c2ccc(-c3ccc(C(N)=O)c(F)c3)cc2)nc1C(N)=O [Example 183, 4-[(aminocarbonyl)amino]-1-[4′-(aminocarbonyl)-3′-fluoro-1,1′-biphenyl-4-yl]-1H-pyrazole-3-carboxamide]
10.6	NC(=O)Nc1cn(-c2ccc(Sc3cccc(Cl)c3)cc2)nc1C(N)=O [Example 289, 1-(1-(4-(3-chlorophenylthio)phenyl)-3-carbamoyl-1H-pyrazol-4-yl)urea]
0.153	NC(=O)Nc1cn(-c2ccc(S(=O)(=O)c3cccc(F)c3)cc2)nc1C(N)=O [Example 203, 1-(1-(4-(3-fluorophenylsulfonyl)phenyl)-3-carbamoyl-1H-pyrazol-4-yl)urea]
2.08	N#CCc1ccc(-c2cccc(-n3cc(NC(N)=O)c(C(N)=O)n3)c2)cc1 [Example 44, 4-[(aminocarbonyl)amino]-1-[4′-(cyanomethyl)-1,1′-biphenyl-3-yl]-1H-pyrazole-3-carboxamide]
> 20	Cc1cc(F)ccc1-c1cccc(-n2cc(NC(N)=O)c(C(N)=O)n2)c1 [Example 345, 4-[(aminocarbonyl)amino]-1-(4′-fluoro-2′-methyl-1,1′-biphenyl-3-yl)-1H-pyrazole-3-carboxamide]
1.32	NC(=O)Nc1cn(-c2ccc(SC3CCCC3)cc2)nc1C(N)=O [Example 207, 1-(3-carbamoyl-1-(4-(cyclopentylthio)phenyl)-1H-pyrazol-4-yl)urea]
0.663	NC(=O)Nc1cn(-c2ccc(S(=O)(=O)c3ccccn3)cc2)nc1C(N)=O [Example 286, 1-(3-carbamoyl-1-(4-(pyridin-2-ylsulfonyl)phenyl)-1H-pyrazol-4-yl)urea]
0.326	NC(=O)Nc1cn(-c2ccc([S+]([O-])c3ccc(F)cc3)cc2)nc1C(N)=O (stereo not drawn) [Example 200, 1-(1-(4-(4-fluorophenylsulfinyl)phenyl)-3-carbamoyl-1H-pyrazol-4-yl)urea]
12.6	CCc1cc(-c2cccc(O)c2)ccc1-n1cc(NC(N)=O)c(C(N)=O)n1 [Example 282, 4-[(aminocarbonyl)amino]-1-(3-ethyl-3′-hydroxy-1,1′-biphenyl-4-yl)-1H-pyrazole-3-carboxamide]
4.21	NC(=O)Nc1cn(-c2ccc(-c3ccc(CN4CCOCC4)cc3)cc2)nc1C(N)=O [Example 34, 4-[(aminocarbonyl)amino]-1-[4′-(morpholin-4-ylmethyl)-1,1′-biphenyl-4-yl]-1H-pyrazole-3-carboxamide]
1.68	Cc1cc(-n2cc(NC(N)=O)c(C(N)=O)n2)ccc1-c1ccc(F)cc1O [Example 241, 1-(4′-Fluoro-2′-hydroxy-2-methyl-biphenyl-4-yl)-4-ureido-1H-pyrazole-3-carboxylic acid amide]
0.81	NCc1cccc(-c2cccc(-n3cc(NC(N)=O)c(C(N)=O)n3)c2)c1 [Example 78, 4-[(aminocarbonyl)amino]-1-[3′-(aminomethyl)-1,1′-biphenyl-3-yl]-1H-pyrazole-3-carboxamide]

IC50 [µM]	SMILES
0.544	CS(=O)(=O)c1ccc(-c2cccc(-n3cc(NC(N)=O)c(C(N)=O)n3)c2)cc1 [Example 374, 4-[(aminocarbonyl)amino]-1-[4′-(methylsulfonyl)-1,1′-biphenyl-3-yl]-1H-pyrazole-3-carboxamide]
0.42	CCN(CC)C(=O)COc1cccc(-c2ccc(-n3cc(NC(N)=O)c(C(N)=O)n3)cc2)c1 [Example 336, 4-[(aminocarbonyl)amino]-1-{3′-[2-(diethylamino)-2-oxoethoxy]-1,1′-biphenyl-4-yl}-1H-pyrazole-3-carboxamide]
0.375	NC(=O)Nc1cn(-c2ccc(-c3cccc(O)c3)c(C(F)(F)F)c2)nc1C(N)=O [Example 233, 4-[(aminocarbonyl)amino]-1-[3′-hydroxy-2-(trifluoromethyl)-1,1′-biphenyl-4-yl]-1H-pyrazole-3-carboxamide]
> 20	CCOc1cc(-n2cc(NC(N)=O)c(C(N)=O)n2)ccc1-c1ccc(O)cc1 [Example 274, 4-[(aminocarbonyl)amino]-1-(2-ethoxy-4′-hydroxy-1,1′-biphenyl-4-yl)-1H-pyrazole-3-carboxamide]
0.5	N#CCOc1ccccc1-c1ccc(-n2cc(NC(N)=O)c(C(N)=O)n2)cc1 [Example 167, 4-[(aminocarbonyl)amino]-1-[2′-(cyanomethoxy)-1,1′-biphenyl-4-yl]-1H-pyrazole-3-carboxamide]
1.36	NC(=O)Nc1cn(-c2ccc(-c3cc(F)ccc3OCC(=O)N3CCOCC3)cc2)nc1C(N)=O [Example 161, 4-[(aminocarbonyl)amino]-1-[5′-fluoro-2′-(2-morpholin-4-yl-2-oxoethoxy)-1,1′-biphenyl-4-yl]-1H-pyrazole-3-carboxamide]
0.387	NC(=O)Nc1cn(-c2cccc(I)c2)nc1C(N)=O [Example 195, 1-(3-carbamoyl-1-(3-iodophenyl)-1H-pyrazol-4-yl)urea]
6.84	NC(=O)Nc1cn(-c2ccc(-c3cccc(OCc4ccncc4)c3)cc2)nc1C(N)=O [Example 171, 4-[(aminocarbonyl)amino]-1-[3′-(pyridin-4-ylmethoxy)-1,1′-biphenyl-4-yl]-1H-pyrazole-3-carboxamide]
3.15	NC(=O)Nc1nn(-c2ccc(-c3cccc(C(F)(F)F)c3)cc2)cc1C(N)=O [Example 131]
3.07	CSc1cccc(-c2ccc(-n3cc(C(N)=O)c(NC(N)=O)n3)cc2)c1 [Example 118]
1.79	NC(=O)Nc1cn(-c2ccc(-c3cccc(-n4cccn4)c3)cc2)nc1C(N)=O [Example 130, 4-[(aminocarbonyl)amino]-1-[3′-(1H-pyrazol-1-yl)-1,1′-biphenyl-4-yl]-1H-pyrazole-3-carboxamide]
> 20	CC(C)(C)c1ccc(-c2ccc(-n3cc(C(N)=O)c(NC(N)=O)n3)cc2)cc1 [Example 126]
6.52	NC(=O)Nc1cn(-c2cccc(Sc3ccccc3F)c2)nc1C(N)=O [Example 198, 1-(1-(3-(2-fluorophenylthio)phenyl)-3-carbamoyl-1H-pyrazol-4-yl)urea]
0.89	NC(=O)Nc1cn(-c2ccc(-c3ccc(C(=O)Nc4ccccn4)cc3)cc2)nc1C(N)=O [Example 33, 4-[(aminocarbonyl)amino]-1-{4′-[(pyridin-2-ylamino)carbonyl]-1,1′-biphenyl-4-yl}-1H-pyrazole-3-carboxamide]
2.08	NC(=O)Nc1cn(-c2cccc(-c3cccc(N)c3)c2)nc1C(N)=O [Example 50, 1-(3′-amino-1,1′-biphenyl-3-yl)-4-[(aminocarbonyl)amino]-1H-pyrazole-3-carboxamide]
2.82	Cc1cccc(-c2ccc(-n3cc(NC(N)=O)c(C(N)=O)n3)cc2)c1 [Example 102, 4-[(aminocarbonyl)amino]-1-(3′-methyl-1,1′-biphenyl-4-yl)-1H-pyrazole-3-carboxamide]
2.19	Cc1cc(-n2cc(NC(N)=O)c(C(N)=O)n2)ccn1 [Example 322, 4-[(aminocarbonyl)amino]-1-(2-methylpyridin-4-yl)-1H-pyrazole-3-carboxamide]
1.43	NC(=O)c1nn(-c2cccc(Br)c2)cc1NC(N)=S [Example 12, 4-[(aminocarbonothioyl)amino]-1-(3-bromophenyl)-1H-pyrazole-3-carboxamide]
